Results: patent US20030186941A1, “Cyclopenteneone derivatives” (priority 1999, published 2003)
Where two headings read alike, the source gives them in different places.

Assays:
[1] = tested on: parainfluenza Sendai virus (SV); experiment: microbe, parasite or virus in culture; type: cell-based; conditions: for IC50: Respirovirus muris; for inhibition of Sendai virus replication: 37RC cells, virus yield at 24 hours after infection
37RC cells [2] = experiment: Toxicity to uninfected 37RC cells, determined visually by microscopy; type: cell-based, Monkey
[3] = tested on: Herpes simplex virus type one (HSV-1), strain F; experiment: HSV-1 replication in Hep-2 cells, virus titre by CPE 50% assay on VERO cells; type: cell-based, Herpes simplex virus type 1; conditions: Human alphaherpesvirus 1, HEp-2, 24 h, read-out: ID50 (50% inhibitory dose/concentration), HSV-1 virus replication
Description: Methods: Human Hep-2 laryngeal carcinoma cells and monkey VERO cells were grown at 37° C. under the conditions described in Example 9 for T cells. Cell viability was determined by dye exclusion technique or by 3-(4,5-dimethylthiazol-2-yl)-2,5-diphenyl-tetrazolium bromide (MTT, Sigma Chemical Co.) to MTT formazan assay, as described by F. Denizot and R. Lang (J. Immunol. Methods 89: 271-277, 1986). Herpes simplex virus type one (HSV-1), strain F grown in VERO cells, was used at a multiplicity of infection of 10 plaque forming units (PFU) per cell. Confluent Hep-2 cell monolayers were infected with HSV-1 for 1 h at 37° C. After this time, virus inocula were removed and cells incubated in RPMI 1640 medium containing 2% FCS. Different concentrations of CTC-35 were added to the culture after the 1 h adsorption period, and maintained in the medium for the duration of the experiment. […] HSV-1 virus titres were determined 24 hours after infection by cytopathic effect 50% (CPE 50%) assay on confluent VERO cells monolayers in 96-well tissue culture plates (six dilutions for each sample, eight wells for each dilution), as described by F. Pica et al. (Antiviral Res. 20: 193-208, 1993). The dilution that gives 50% cytopathic effect were determined by the interpolating procedure of Reed and Muensch, as described by E. Rodriguez-Boulan Methods Enzymol. 98: 486-501, 1983).

NF-κB [4] = biological target: T1, NF-κB (Homo sapiens, UniProt Q04206); experiment: EMSA of NF-κB DNA-binding activity in TPA-stimulated Jurkat T cells; type: cell-based; set-up: endogenous in cells; host or cells: Jurkat T cells (human lymphoblastoid), TPA-stimulated; whole-cell extracts; conditions: test compound 1 hour then TPA 25 ng/ml, extracts after 3 hours
Description: Methods: Human lymphoblastoid Jurkat T cells were grown at 37° C. in a 5% CO2 atmosphere in RPM1 1640 medium (GIBCO BRL, Gaithersburg, Md.) supplemented with 10% fetal calf serum (FCS, Hyclone Europe Ltd, UK) 2 mM glutamine and antibiotics according to the method described by A. Rossi et al. (Proc. Natl. Acad. Sci. USA 94: 746-750, 1997). The test compounds were stored as a 100% ethanolic stock solution (100 mM) or in DMSO (100 mM and diluted to the appropriate concentration in culture medium at the time of use. Cells were treated with different concentrations of test compound for 1 hour and then stimulated with 12-O-tetradecanoylphorbol-13-acetate (TPA, 25 ng/ml), which is a strong inducer of NF-κB. Control cells received an equal amount of control diluent. After 3 hours whole-cell extracts were prepared and subjected to analysis of DNA-binding activity by EMSA (Electrophoretic Mobility Shift Assay) for detection of HSF or NF-κB activation, according to the method described by A. Rossi et al. (Proc. Natl. Acad. Sci. USA 94: 746-750, 1997).
Specificity of protein-DNA complexes was verified by immunoreactivity with polyclonal antibodies specific for p65 (Rel A) or for HSF-1, for NF-κB and HSF respectively. Quantitative evaluation of NF-κB- and HSF-DNA complex formation was determined by Molecular Dynamics Phosphorlmager (MDP) analysis and was expressed in arbitrary units, as described in A. Rossi et al.(J. Biol. Chem. 273: 16446-16452, 1998). The results from representative experiments are shown in FIGS. 1(b), 2(b), 3(b), 4(b), 5(b), 6 and 7(b) for compounds CTC-31, CTC-32, CTC-33, CTC-34, CTC-35, CTC-36 and CTC-45, as identified above.

37RC cells [5] = experiment: MTT cell viability assay, uninfected 37RC cells; type: cell-based, Monkey; conditions: 24 hours
Description: (§1) Cell viability was determined by the 3-(4,5-dimethylthiazol-2-yl)-2,5-diphenyltetrazolium bromide MIT) assay. Uninfected A549 (7.5×10^4 cells/well in 96 well plates) or 37RC cells (2.5×10^4 cells/well in 96 well plates) were treated with different concentrations of CTC35 or ethanol diluent for 24 hours. After this time, […] of a 0.5% MIT solution in PBS was added to the monolayers and the mixture was incubated for 2 h at 37° C. Reduced MTT (formazan) was extracted from cells by adding 100 μl of acidic isopropanol containing 10% Triton X-100, and formazan absorbance was measured in an ELISA microplate reader at two different wavelengths (540 and 690 nm).

A549 cells = experiment: MTT cell viability assay, uninfected A549 cells; type: cell-based, Human; conditions: 24 hours
Description: as §1

[6] = anaesthetized rat, intravenous infusion, doses from 30 μg/kg/min; cited from earlier work
HSF1 = biological target: T2, HSF1 (Homo sapiens, UniProt Q00613); conditions: at a concentration of 125-500 μM; cited from earlier work
T2 sequence (Q00613 1-529): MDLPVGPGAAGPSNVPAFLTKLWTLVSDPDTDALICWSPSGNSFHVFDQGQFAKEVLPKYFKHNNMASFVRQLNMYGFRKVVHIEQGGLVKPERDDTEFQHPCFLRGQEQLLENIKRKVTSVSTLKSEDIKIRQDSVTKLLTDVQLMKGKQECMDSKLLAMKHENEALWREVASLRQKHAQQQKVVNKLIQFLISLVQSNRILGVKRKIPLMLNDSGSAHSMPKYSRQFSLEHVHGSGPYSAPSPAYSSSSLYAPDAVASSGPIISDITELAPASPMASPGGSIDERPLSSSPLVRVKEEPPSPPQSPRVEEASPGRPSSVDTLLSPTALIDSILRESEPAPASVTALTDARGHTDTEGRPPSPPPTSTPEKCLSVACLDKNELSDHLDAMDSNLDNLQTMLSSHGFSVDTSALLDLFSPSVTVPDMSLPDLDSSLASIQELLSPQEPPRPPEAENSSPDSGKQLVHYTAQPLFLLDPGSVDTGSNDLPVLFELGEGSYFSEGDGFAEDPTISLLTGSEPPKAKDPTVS

NF-κB [7] = biological target: T1, NF-κB; conditions: at a concentration of 125-500 μM; cited from earlier work
[8] = Sendai virus in 37RC cells, at 24 hours, read-out: ID50 (the source's name)

T1 sequence (Q04206 whole entry): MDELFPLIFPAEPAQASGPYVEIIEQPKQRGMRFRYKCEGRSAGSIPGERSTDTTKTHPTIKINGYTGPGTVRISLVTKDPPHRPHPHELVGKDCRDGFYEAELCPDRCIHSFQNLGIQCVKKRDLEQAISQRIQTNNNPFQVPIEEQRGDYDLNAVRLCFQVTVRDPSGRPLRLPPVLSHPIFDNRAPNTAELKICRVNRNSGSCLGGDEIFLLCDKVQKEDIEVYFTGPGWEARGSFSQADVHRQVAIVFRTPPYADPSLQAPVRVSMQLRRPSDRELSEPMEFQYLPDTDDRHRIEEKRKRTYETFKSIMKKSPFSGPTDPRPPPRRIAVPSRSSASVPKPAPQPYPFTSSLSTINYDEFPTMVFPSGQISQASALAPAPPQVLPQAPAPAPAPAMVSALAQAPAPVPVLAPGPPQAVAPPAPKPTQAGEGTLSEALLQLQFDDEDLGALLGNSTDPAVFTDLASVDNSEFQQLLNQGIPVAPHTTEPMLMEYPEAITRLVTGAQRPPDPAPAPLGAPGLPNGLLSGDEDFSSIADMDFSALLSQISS
T1 sequence (P19838 1-433 partner limits assumed): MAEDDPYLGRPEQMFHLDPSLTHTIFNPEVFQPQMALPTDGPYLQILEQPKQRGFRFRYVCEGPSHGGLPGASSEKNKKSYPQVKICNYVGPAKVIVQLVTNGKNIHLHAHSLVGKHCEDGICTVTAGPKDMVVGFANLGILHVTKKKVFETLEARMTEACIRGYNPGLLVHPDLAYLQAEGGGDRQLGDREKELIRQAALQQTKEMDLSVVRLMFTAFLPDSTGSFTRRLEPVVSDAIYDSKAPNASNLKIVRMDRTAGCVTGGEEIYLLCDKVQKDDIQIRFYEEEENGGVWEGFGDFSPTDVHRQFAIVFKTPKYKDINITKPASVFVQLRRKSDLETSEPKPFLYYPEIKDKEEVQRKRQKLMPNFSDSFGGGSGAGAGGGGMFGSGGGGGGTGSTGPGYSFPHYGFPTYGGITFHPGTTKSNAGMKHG

Structure (SMILES)	IC50 ([1]; 24 h, read-out: ID50)	TD100 (concentration 100% toxic to uninfected cells) (37RC cells [2])	inhibition of Sendai virus replication [1]	inhibition of NF-κB (NF-κB-DNA complex formation, EMSA) (NF-κB [4])	also measured
CC(C)(C)[Si](C)(C)OC1C=CC(=O)/C1=C/c1ccccn1 (stereo not drawn) [CTC-32, 4-tert.butyldimethylsilyloxy-5-[methylene-(2-pyridyl)]-cyclopent-2-ene-1-one]	2 µM	10 µM	–	–	–
CC(C)/C=C1\C(=O)C=CC1O[Si](C)(C)C(C)(C)C (stereo not drawn) [CTC-35]	–	50 µM	potent inhibitors of Sendai virus replication	potent inhibitors of NF-κB	IC50 [1, 8]: 0.4 µM; IC50 [3]: 1.51 µM; LD50 (Lethal dose/concentration 50%) (37RC cells [5]): 30 µM; LD50 (Lethal dose/concentration 50%) (A549 cells): 90 µM
CC(C)/C=C1/C(=O)C=CC1O[Si](C)(C)C(C)(C)C (stereo not drawn) [CTC-36]	–	–	–	potent inhibitors of NF-κB	–
CCC/C=C1/C(=O)C=CC1O[Si](C)(C)C(C)(C)C (stereo not drawn) [CTC-45, butyldimethylsilyloxy-5-[but-1-ene]-cyclopent-2-ene-1-one]	3 µM	50 µM	potent inhibitors of Sendai virus replication	potent inhibitors of NF-κB	–
CC(C)(C)[Si](C)(C)OC1C=CC(=O)/C1=C/c1ccccc1 (stereo not drawn) [CTC-33, 5-benzylidene-4-[(tert-butyldimethylsilyl)oxy]-2-cyclopentene-1-one]	–	50 µM	potent inhibitors of Sendai virus replication	potent inhibitors of NF-κB	IC50 [1, 8]: 1.5 µM
CCCCCCC/C=C1/C(=O)C=CC1O[Si](C)(C)C(C)(C)C (stereo not drawn) [CTC-34, 4-tert.butyldimethylsilyloxy-5-(oct-1-ene)-cyclopent-2-ene-1-one]	3 µM	50 µM	potent inhibitors of Sendai virus replication	potent inhibitors of NF-κB	–
CCCCC[C@H](O)/C=C/[C@H]1C=CC(=O)[C@@H]1CCCCCCC(=O)O [Prostaglandin A1]	–	–	–	–	effect on blood pressure [6]: dose-dependant falls in blood pressure
O=C1C=CCC1 [cyclopent-2-en-1-one]	–	–	–	–	activation of HSF1 (HSF1): able to activate HSF1; block of NF-κB activation by chemical or physiological inducers (NF-κB [7]): able to block NF-κB activation
CC/C=C1/C(=O)C=CC1O[Si](C)(C)C(C)(C)C (stereo not drawn) [CTC-31, 4-tert.butyldimethylsilyloxy-5-(prop-1-ene)-cyclopent-2-ene-1-one]	1 µM	50 µM	potent inhibitors of Sendai virus replication	potent inhibitors of NF-κB	–
CCCCC[C@H](O)/C=C/[C@H]1[C@H](O)CC(=O)[C@@H]1CCCCCCC(=O)O [Prostaglandin E1]	–	–	–	–	effect on blood pressure [6]: dose-dependant falls in blood pressure
